From patent US11261189B2, “Substituted 2,4 diamino-quinoline as new medicament for fibrosis, autophagy and cathepsins B (CTSB), L (CTSL) and D (CTSD) related diseases” (Genoscience Pharma, priority 2018, dated 2022)
Where a name gives a salt, the structure may show the parent alone.

Molecular target: T1, cathepsin B (CTSB) (Homo sapiens, UniProt P07858)
T1 construct: endogenous in cells; host or cells: HepG2
Test: Cathepsin B (CTSB) catalytic activity in lysates of treated HepG2 cells (Z-RR-AMC substrate)
Assay type: cell-based
Conditions: for CTSB activity versus NT: 6 hours of treatment
Experimental: Lysosomal functions was investigated in a hepatocellular carcinoma (HCC) cell line HepG2 after 6 hours and 24 hours of treatment with compound 2-3 (the hydrochloride salt form of compound 2-2) using functional assays of some lysosomal enzymes activity: two cysteine proteinases: cathepsin B (CTSB) and cathepsin L (CTSL), and one aspartic proteinase: cathepsin D (CTSD). Two sets of three concentrations of compound 2-3 (1 μM, 2 μM, and 4 μM for 6 hours, and 0.5 μM, 1 μM and 2 μM for 24 hours) were tested at least in triplicate and four independent experiments were performed. Salinomycin (7.5 μM for 6 hours and 24 hours) was used as a positive control.
The HepG2 cell line was maintained in DMEM (Dulbecco's Modified Eagle Media) high glucose (Cat #L0103-500, Dutscher) containing 1% penicillin-streptomycin (Cat #P06-07100, Dutscher) and 10% FBS (Fetal Bovine Serum) (Cat #11543407, Life Technologies). Cells were cultured at 37° C. with 5% CO2.
The day before the experiment, 6-well plates (Cat #353046, Dutscher) with 250,000 cells in 2.7 mL of medium per well were prepared.
Compound 2-3 was dissolved with filtrated H2O mQ to make a 10 mM stock solution and serial working solutions (10× solutions) were prepared with the diluent (=culture medium with 0.4% H2O mQ) at 5 μM, 10 μM, 20 μM and 40 μM: the “dilution 1” is made from the 10 mM stock solution in the culture medium and the following serial dilutions were made in the diluent to maintain a constant percentage of H2O.
Salinomycin [CAS 53003-10-4] was used as positive control and was dissolved with methanol to make a 10 mM stock solution and a 10× solution at 75 μM was prepared with the culture medium.
300 μL of compound 2-3 10× solutions (solutions at 10 μM, 20 μM and 40 μM for 6 hours of treatment and solutions at 5 μM, 10 μM and 20 μM for 24 hours of treatment) or 300 μL of diluent (=non-treated (NT) condition) or 300 μL of Salinomycin 10× solution were dispensed in the appropriate wells (4 wells/condition). After cells treatment, 6-well plates were returned to incubator for 6 hours or 24 hours.
After 6 hours or 24 hours of cells treatment, the medium was removed from each well. The cells were carefully rinsed with PBS (phosphate-buffered saline, Cat #L0615-500, Dutscher) and detached with 500 μL per well of a trypsin solution. After 5 min of trypsin (Cat #L0930-100, Dutscher) incubation at 37° C., 800 μL of medium was added per well and transferred to a 1.5 mL tube. Then, 800 μL of PBS was used to rinse each well and the corresponding solution was pooled in each corresponding 1.5 mL tube. […] Total protein concentration was assessed using the Bradford reagent (Cat #B6916-500ML, Sigma-Aldrich) and cellular lysates were stored at −80° C. until catalytic activity measurement. […]

- CTSB activity versus NT (HepG2, 2 μM): 75.4%
- CTSB activity versus NT (HepG2, 4 μM): 54.0%
- inhibition of cathepsin B (CTSB) compare to the control (HepG2, 2 μM, 4 μM for 6 hours and 2 μM for 24 hours, p<0.05): statistically significant
Structure (SMILES): CC(C)(C)NC1CCN(c2cc(NCc3ccc(Cl)cc3)nc3ccccc23)CC1 [2-3, 2-(4-chlorobenzylamino)-4-(4-tert-butylaminopiperidin-1-yl)-quinoline Hydrochloride Salt]
